Here are results for 1 compound from patent US5710169A, “Therapeutic heterocycles” (Zeneca Limited, priority 1994, dated 1998).

Structures can show the parent of a compound that is named as a salt.

The target of the assay is T1, NK1 receptor (Oryctolagus cuniculus, UniProt G1SEI7).
T1 construct: The left and right branches of the pulmonary artery are isolated from the rest of the lung tissue; from tissue; host or cells: pulmonary artery ring segments with intact endothelium, male New Zealand white rabbit (Oryctolagus cuniculus)
Kind of assay: Rabbit Pulmonary Artery: NK1 in vitro functional assay (Test C). It counts as cell-based, New Zealand white rabbit. To be noted: agonist ASMSP, read-out: pKB (-log molar KB) in Test C (converted). On the procedure:
Rabbit Pulmonary Artery: NK1 in vitro functional assay (Test C)
Male New Zealand white rabbits are killed by lethal injection (Nembutal, 60 mg/kg into a cannulated ear vein). Heparin, 0.0025 ml/kg of a 1000 U/ml solution, is injected into the ear vein prior to nembutal in order to decrease blood coagulation. The left and right branches of the pulmonary artery are isolated from the rest of the lung tissue and cut in half to provide four ring segments from each animal. […] Changes in tension are measured on a Grass polygraph via Grass FT-03 force transducers. […]
Potencies of the compounds are determined by calculating the apparent dissociation constants (KB) for each concentration tested using the standard equation: […]
where dose ratio=antilog[(agonist-log molar EC50 without compound)-(agonist-log molar EC50 with compound)]. The KB values are converted to the negative logarithms and expressed as -log molar KB (i.e. pKB). […] The EC50 values are converted to negative logarithms and expressed as -log molar EC50. Maximum relaxation responses to ASMSP are determined by expressing the maximum response to the agonist as a percentage of the relaxation caused by papaverine.

T1 sequence (G1SEI7 1-407): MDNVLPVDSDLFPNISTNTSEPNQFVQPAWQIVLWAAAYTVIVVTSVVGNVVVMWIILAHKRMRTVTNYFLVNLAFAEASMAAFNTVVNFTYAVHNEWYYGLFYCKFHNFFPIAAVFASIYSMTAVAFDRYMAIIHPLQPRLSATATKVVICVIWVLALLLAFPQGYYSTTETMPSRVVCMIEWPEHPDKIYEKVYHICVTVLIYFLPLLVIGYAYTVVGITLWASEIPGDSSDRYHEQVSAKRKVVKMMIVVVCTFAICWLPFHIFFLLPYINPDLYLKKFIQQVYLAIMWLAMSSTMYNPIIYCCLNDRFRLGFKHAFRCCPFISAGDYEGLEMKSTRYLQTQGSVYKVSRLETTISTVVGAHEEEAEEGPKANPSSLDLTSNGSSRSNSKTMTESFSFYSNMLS

For `COc1ccccc1CC(=O)N(C)CC(c1ccc(Cl)c(Cl)c1)N1CCC(O)(c2ccccc2)CC1` (stereo not shown) [Example 2, N-[2-(3,4-Dichlorophenyl)-2-(4-hydroxy-4-phenylpiperidino)ethyl]-N-methyl-2-methoxyphenylacetamide hydrochloride salt], the Kb is 0.631 µM.
